We go through 1 compound from publication PMC11456916, “A screen for cell envelope stress uncovers an inhibitor of prolipoprotein diacylglyceryl transferase, Lgt, in Escherichiacoli” (iScience, 2024).

Like-named read-outs stand apart in the source and are kept apart here. Some results are limits rather than exact numbers.

Test [1] has as its system 356 CRISPRi constructs in E. coli ΔtolC-pore. Put plainly: CRISPRi collection fitness screen with sub-inhibitory compound. Type of test: cell-based. Particulars: sub-inhibitory (¼ MIC) concentration, LB agar, basal knockdown. A digest of the protocol: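 Mobile CRISPRi collection conjugated into the ΔtolC-pore strain and pinned on agar at 1536 density in technical quadruplicate with a sub-inhibitory MAC-0452936 concentration. No CRISPRi induction; only basal 5–10% knockdown.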

The test system of test [2] is P. aeruginosa PA01. In words: MIC assay with or without SPR741, P. aeruginosa. Particulars: for MIC: Pseudomonas aeruginosa. It is filed as cell-based, Pseudomonas aeruginosa. The method, then: We next sought to determine whether we could achieve growth inhibition of wild-type E. coli using MAC-0452936 and an antibiotic adjuvant. […] To that end, we determined the MIC of MAC-0452936 against wild-type E. coli in the presence and absence of a sub-MIC concentration of SPR741 (Figure S8B). […] We leveraged this combination to characterize the spectrum of activity of MAC-0452936 against a panel of Gram-negative pathogens (Table 2). In the presence of 8 μg/mL SPR741, we observed MAC-0452936 activity against the clinical E. coli isolates C0244 and CFT073 at 2 μg/mL as well as against Salmonella Typhimurium SL1344 at 4 μg/mL.
For MIC assays, cultures of bacteria were grown in LB broth. Overnight cultures were diluted (1:100) into fresh LB media and grown to the mid-log phase of growth (OD600 ∼0.5). Subcultures were then normalized to an OD600 of 0.1, and diluted (1:5000) into assay media. Assay plates were then incubated for 18 h at 37°C, then OD600 was measured using a Biotek Neo plate reader.

As to `COc1ccc(C(=O)O/N=C(\c2cccs2)C(C)(C)C)cc1` [MAC-0452936, (Z)-2-Pivaloylthiophene O-(4-methoxybenzoyl) oxime], in test [1], the “growth defect of the lgt CRISPRi mutant in the presence of compound” value is “considerable growth defect”. The “MIC, P. aeruginosa PA01 + 8 μg/mL SPR741” value in test [2] (8 μg/mL SPR741) is reported as “did not observe MAC-0452936 activity”. Moreover, the MIC in test [2] (PA01, read-out: MIC, P. aeruginosa PA01 + 8 μg/mL SPR741) was greater than 64 µg/mL; in test [2] (PA01, read-out: MIC, P. aeruginosa PA01 + 0 μg/mL SPR741) it was greater than 64 µg/mL.
